Source: US7524930B2, “Tumor antigen” (Green Peptide Co., Ltd, priority 2003, dated 2009)

Key:
OK-CTLp = assay: IFN-γ production by OK-CTLp against COS-7 cells cotransfected with cDNA clone and HLA-A0207 cDNA (ELISA); format: cell-based, human; conditions: result in words
Experimental: 200 ng of the above-described plasmid DNA pool or clones of Panc-1 cell cDNA library was mixed with 200 ng of the cDNA of HLA-A0207 in 100 μl of Opti-MEM (Invitrogen Corp.) for 30 min. 50 μl of this mixture was added to COS-7 cells (5×10^3) and incubated for 6 h in a 96-well U-bottom type microculture plate (Nunc Corp.) for co-tranduction. Then, RPMI-1640 culture medium containing 10% FCS was added to and culturing was carried out for 2 days, followed by the addition of OK-CTLp (5×10^4) to each well. After a further 18 h incubation, 100 μl of the supernatant was collected and IFN-γ production was measured thereon by ELISA. […]
From the genes encoding the tumor antigens (Biochim. Biophys. Res. Commun., 281:936-944, 2001), which were detected by the SEREX (Serological Analysis of Recombinant cDNA Expression Libraries) method (Proc. Natl Acad. Sci. USA, 92:11910-[…], 1995) and already reported, two tumor antigen genes, KM-PA-2 and KM-PA-4; which can activate HLA-A2-restricted CTL, were found by using the same method as that of Example 2. […] However, among 1500 or more kinds of tumor antigens detected by this method, those identified as tumor antigens capable of inducing both cell-mediated immunity and humoral immunity are only MAGE-1, tyrosinase, and NY-ESO-1. […]

[1] = tested on: peripheral blood mononuclear cells derived from a cancer patient; assay: CTL induction by peptide from autologous PBMC of cancer patient, IFN-γ production on recognition of target cells (Example 5); format: cell-based, human; conditions: for IFN-γ production from peripheral blood mononuclear cells in recognition of target cells: PBMC stimulated with 10 μM peptide
Text: Among the peptides that were able to enhance IFN-γ production from the OK-CTLp or OK-CTL clone in Example 4, those from P1 to P19 were examined for their ability to induce CTL from peripheral blood mononuclear cells derived from a cancer patient. The method for inducing CTL by a peptide was according to the well-known method (J. Exp. Med., 187:277-288, 1998; Cancer Res., 59:4056-4063, 1999.) Specifically, autologous peripheral blood mononuclear cells (PBMC) derived from a cancer patient, from whom OK-CTLp was obtained, were incubated together with the peptide (10 μM.) The cells were re-stimulated at day 10 and 14 after the start of culturing, using autologous PBMCs as an antigen presenting cell (APC) which were pulsed with 10 μM of the same peptide for 2 h and exposed to irradiation (30 gray.) At day 21 after the start of culturing, the cells were collected to test for surface phenotype. In addition, the cells were examined for the recognition of various target cells, using IFN-γ production measured by ELISA when they were cultured together with the target cells as an indicator. As a target cells, SW620 cell, CA9-22 cell, and Panc-1 cell, which are the HLA-A2^+ tumor cells, were used.

HLA-A0201 molecule = target: T1, HLA-A0201 molecule (Homo sapiens, UniProt P04439, D140Y/D185E/D98H/E176V/E277Q/G131W/G231S/I119V/I121R/I166T/I218V/L300P/L318F/N151K/N90K/P208A/P217A/Q86G/Q94H/R138H/R169H/T345S); assay: Binding activity of peptide to HLA-A0201 molecule on T2 cells (FACScan, MFI); conditions: peptide 10 μM, positive and negative controls 898 and 490
T1 construct: endogenous in cells; host or cells: T2 cells (TAP-deficient mutant line)
Experimental: Binding activity of the peptide to the HLA-A0201 molecule was tested using a T2 cell mutant strain (Cancer Res., 54:1071-1076, 1994. ) The T2 cell expresses the HLA-A2 molecule on a cell surface without binding to a peptide, because of deficiency of TAP. Specifically, the synthesized peptide (10 μM) and the T2 cells were incubated at 26° C. for 3 h and, subsequently, incubated in 5% CO2 and 95% air at 37° C. for 3 h.
Binding affinity of the peptides to HLA-A0201 molecule was expressed as a relative mean fluorescence intensity (MFI) of the HLA-A2 molecule.

[2] = tested on: peripheral blood mononuclear cells derived from a cancer patient; assay: CTL induction by peptide from autologous PBMC of cancer patient, IFN-γ production on recognition of target cells (Example 5); format: cell-based, human; conditions: PBMC stimulated with 10 μM peptide

Substance	Recognition by OK-CTLp of COS-7 cells cotransfected with the cDNA and HLA-A0207 (IFN-γ production) (OK-CTLp)	Recognition of tumor cells by PBMC stimulated in vitro with peptide (IFN-γ production) ([1]; SW620, CA9-22 and Panc-1 HLA-A2+ tumor cells, result in words)	IFN-γ production from peripheral blood mononuclear cells in recognition of target cells ([1]; target CA9-22 (HLA-A0207/24))	IFN-γ production from peripheral blood mononuclear cells in recognition of target cells ([1]; target Panc-1 (HLA-A0201/11))	IFN-γ production from peripheral blood mononuclear cells in recognition of target cells ([1]; target SW620 (HLA-A0201/24))	MFI (relative mean fluorescence intensity of the HLA-A2 molecule; binding affinity to HLA-A0201) (HLA-A0201 molecule)	IFN-γ production from peripheral blood mononuclear cells in recognition of target cells ([2]; target COLO320 (HLA-A24/24))	IFN-γ production from peripheral blood mononuclear cells in recognition of target cells ([2]; target QG56 (HLA-A26/26))	IFN-γ production from peripheral blood mononuclear cells in recognition of target cells ([2]; target RERF-LC-MS (HLA-A11/11))
KM-PA-2: tumor antigen gene from CFPAC-1 (SEREX), 2060 bp [AB060694], homologous to KIAA0124 / Bop1	induced IFN-γ production from OK-CTLp	–	–	–	–	–	–	–	–
KM-PA-4: tumor antigen gene from CFPAC-1 (SEREX), 1841 bp, identical to coactosin-like protein (CLP)	induced IFN-γ production from OK-CTLp	–	–	–	–	–	–	–	–
LIADETSGL [Peptide P3, Gene 1 (UBE2V) 85-93]	–	produced IFN-γ in a significant amount	58 pg/mL	289 pg/mL	188 pg/mL	910	44 pg/mL	0 pg/mL	0 pg/mL
